Experiments:
Experiment in all cases: relative viability (nuclei count vs DMSO), 5 days (fraction); higher = more cells survive
[1] = compound: NCC(=O)Nc1ccc(-n2nc(C(F)(F)F)cc2-c2ccc3c(ccc4ccccc43)c2)cc1 + C[C@]1(O)C[C@@H](c2nc(-c3ccc4ccc(-c5ccccc5)nc4c3)c3c(N)nccn32)C1 [Linsitinib] (partner 1 µM)
Summary of the method: (§1)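 Nuclei were stained with Hoechst during a one-step fixation (final 0.05% Triton X-100, 1% formaldehyde, 1 ug/ml Hoechst) carried out 5 days after dosing, then counted on 4× images. The cells, lung cancer lines in 1536-well plates, had been dosed by pin tool the day after seeding with one drug alone or a fixed anchor-drug dose plus five library-drug doses (not always all listed) in √10 steps. Relative viability is the nuclei count in treated wells divided by that in vehicle wells, and each value is the median of duplicate plates.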

[2] = compound: NCC(=O)Nc1ccc(-n2nc(C(F)(F)F)cc2-c2ccc3c(ccc4ccccc43)c2)cc1 + CCNC(=O)c1noc(-c2cc(C(C)C)c(O)cc2O)c1-c1ccc(CN2CCOCC2)cc1 [Luminespib] (partner 0.01 µM)
Summary of the method: as §1

[3] = compound: NCC(=O)Nc1ccc(-n2nc(C(F)(F)F)cc2-c2ccc3c(ccc4ccccc43)c2)cc1 + Cc1nc(Nc2ncc(C(=O)Nc3c(C)cccc3Cl)s2)cc(N2CCN(CCO)CC2)n1 [Dasatinib] (partner 0.075 µM)
Summary of the method: as §1

[4] = compound: C1CSC2=C(C(=O)N1)SC3=C2C=C(C=C3)O [kb NB 142-70] + CC(C)C[C@H](NC(=O)[C@H](Cc1ccccc1)NC(=O)c1cnccn1)B(O)O [Bortezomib] (partner 0.002 µM)
Summary of the method: as §1

Row | Cell Line | relative viability ([1]; first compound 0.02 µM) | relative viability ([1]; first compound 0.06325 µM) | relative viability ([1]; first compound 0.2 µM) | relative viability ([1]; first compound 0.6325 µM) | relative viability ([1]; first compound 2 µM) | relative viability ([2]; first compound 0.02 µM) | relative viability ([2]; first compound 0.06325 µM) | relative viability ([2]; first compound 0.2 µM) | relative viability ([2]; first compound 0.6325 µM) | relative viability ([2]; first compound 2 µM) | relative viability ([3]; first compound 0.02 µM) | relative viability ([3]; first compound 0.06325 µM) | relative viability ([3]; first compound 0.2 µM) | relative viability ([3]; first compound 0.6325 µM) | relative viability ([3]; first compound 2 µM) | relative viability ([4]; first compound 0.1 µM) | relative viability ([4]; first compound 1 µM) | relative viability ([4]; first compound 3.162 µM)
1 | NCI-H358 | 0.807 | 0.8 | 0.72 | 0.868 | 0.737 | 0.316 | 0.54 | 0.37 | 0.323 | 0.259 | 0.165 | 0.138 | 0.153 | 0.173 | 0.189 | – | – | –
2 | NCI-H522 | – | – | – | – | – | 0.97 | 1.05 | 1.24 | 1.19 | 1.37 | – | 0.831 | 0.874 | 0.854 | 0.921 | – | – | –
3 | NCI-H1299 | 0.937 | 0.971 | 1.05 | 0.929 | 0.999 | – | – | – | – | – | – | – | – | – | – | 1.01 | 1.07 | 1.05
4 | NCI-H1395 | 0.997 | 0.986 | 1.15 | 1.06 | 1.18 | 0.615 | 0.78 | 0.678 | 0.655 | 0.617 | 0.442 | 0.422 | 0.358 | 0.444 | 0.39 | – | – | –
5 | NCI-H1623 | – | – | – | – | – | 0.552 | 0.425 | 0.457 | 0.661 | 0.558 | 0.544 | 0.676 | 0.531 | 0.488 | 0.528 | – | – | –
6 | NCI-H1650 | – | – | – | – | – | 0.202 | 0.229 | – | 0.166 | 0.199 | 0.349 | 0.313 | – | 0.364 | 0.396 | 0.179 | 0.206 | 0.203
7 | NCI-H1703 | 0.718 | 0.781 | 0.52 | 0.691 | 0.591 | – | – | – | – | – | – | – | – | – | – | 0.255 | 0.361 | 0.209
8 | NCI-H1793 | 0.826 | 0.799 | 0.893 | 0.966 | 0.962 | 0.398 | 0.155 | 0.18 | 0.192 | 0.213 | 0.352 | 0.431 | 0.391 | 0.404 | 0.411 | – | – | –
9 | NCI-H1944 | 1.14 | 1.21 | 1.16 | 1.11 | 1.3 | 0.667 | 0.71 | 0.787 | 0.715 | 0.75 | 0.199 | 0.221 | 0.208 | 0.211 | 0.24 | – | – | –
10 | NCI-H2170 | – | – | – | – | – | 0.738 | 0.7 | 0.552 | 0.75 | 0.616 | 0.522 | 0.695 | 0.494 | 0.581 | 0.694 | – | – | –
11 | NCI-H2342 | – | – | – | – | – | 0.626 | 0.875 | 0.75 | 0.75 | 0.688 | 0.313 | 0.331 | 0.312 | 0.285 | 0.305 | – | – | –
12 | SK-MES-1 | 1.08 | 1.03 | 1.11 | 0.997 | 1.17 | 0.828 | 0.904 | 0.897 | 0.842 | 0.802 | 0.473 | 0.372 | 0.365 | 0.355 | 0.406 | – | – | –
13 | SW 900 | – | – | – | – | – | – | 0.187 | 0.188 | 0.209 | 0.169 | – | 0.69 | 0.852 | 0.515 | 0.592 | – | – | –
